Consider ten molecules from patent publication US20260250257A1, “ANTIBACTERIAL AND SYNERGISTIC ACTIVE COMPOUND AND USE THEREOF” (EAST CHINA UNIVERSITY OF SCIENCE AND TECHNOLOGY, priority 2023, published 2026).

The test system of experiment [1] is ATCC13883 strain (Klebsiella pneumoniae). Nature of the experiment: Checkerboard antibacterial synergistic activity test with polymyxin E (FIC). As to conditions: combined with polymyxin E. On the set-up: key: FIC≤0.5 synergy; 0.5–1 additive; 1–2 indifferent; ≥2 antagonism. It counts as cell-based. Summed up: (§1)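 Checkerboard in MH broth: colistin dilutions 16→0.015 μg/ml × test drug 256→4 μg/ml (concentrations before adding inoculum); drug mix plus bacteria, 37° C., 16 h. FIC cut-offs: ≤0.5 synergy; 0.5–1 additive; 1–2 indifferent; ≥2 antagonism.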

The subject of experiment [2] is ATCC19606 strain (Acinetobacter baumannii). Described as above. The format is cell-based. More on the design: key: FIC≤0.5 synergy; 0.5–1 additive; 1–2 indifferent; ≥2 antagonism. The settings on record: combined with polymyxin E. The method in brief:
as §1

The subject of experiment [3] is ATCC25922 strain (Escherichia coli). The experiment is described as above. The format is cell-based. More on the design: key: FIC≤0.5 synergy; 0.5–1 additive; 1–2 indifferent; ≥2 antagonism. As to conditions: combined with polymyxin E. Summed up: as §1
Experiment [4] deals with ATCC9027 strain (Pseudomonas aeruginosa). The description is as above. The format is cell-based. On the set-up: key: FIC≤0.5 synergy; 0.5–1 additive; 1–2 indifferent; ≥2 antagonism. As to conditions: combined with polymyxin E. Summed up: as §1
In experiment [5] the test system is ATCC13883 strain (Klebsiella pneumoniae). Nature of the experiment: Broth microdilution, antibacterial activity of the compound used alone. The format is cell-based. The settings on record: for MIC: read-out: Antibacterial activity of the compound of Formula I, ATCC13883. From the text:
(§2) The broth microdilution method was used to test the antibacterial effects of the compounds of the present invention against various Gram-negative bacterial strains when used alone.

The test system of experiment [6] is ATCC19606 strain (Acinetobacter baumannii). The description is as above. The settings on record: for MIC: read-out: Antibacterial activity of the compound of Formula I, ATCC19606. The format is cell-based.
Excerpt: as §2

The test system of experiment [7] is ATCC25922 strain (Escherichia coli). The description is as above. The format is cell-based. As to conditions: for MIC: read-out: Antibacterial activity of the compound of Formula I, ATCC25922.
Excerpt: as §2

The subject of experiment [8] is ATCC9027 strain (Pseudomonas aeruginosa). Described as above. It counts as cell-based. As to conditions: for MIC: read-out: Antibacterial activity of the compound of Formula I, ATCC9027.
Excerpt: as §2

The subject of experiment [9] is ATCC19606 strains (Acinetobacter baumannii). Nature of the experiment: In vivo synergistic bactericidal activity with polymyxin E, mouse bacteremia model. As to conditions: Polymyxin E 0.5 mg/kg + compound 16 mg/kg, Balb/c mice infected with ATCC19606. On the set-up: species or system Balb/c mice. As for the experimental part: Representative compounds I-14 and I-82 were tested for their in vivo synergistic bactericidal activities when combined with polymyxin E. The specific method is as follows:
Normal Balb/c mice (6-8 weeks old) were used, and the animals were randomly divided into four groups (5 mice per group): • I: Control group • II: Polymyxin E at 0.5 mg/kg body weight • III: Polymyxin E at 0.5 mg/kg body weight+Compound I-14 at 16 mg/kg • IV: Polymyxin E at 0.5 mg/kg body weight+Compound I-82 at 16 mg/kg
Freshly cultured ATCC19606 strains (logarithmic growth phase) were washed with saline, adjusted to an OD600 of ~1.0, and mixed at 1:1 (v/v) with 10% porcine mucin. Each mouse was intraperitoneally administered 500 μl of the mixture. 1 hour later, an intraperitoneal injection was given again, with the control group receiving only saline.

Values after ≈ are worked out from the molar mass of the structure shown.

With `CC(C)(C)c1cc(-c2csc(N=C(N)N)n2)cc(C(C)(C)C)c1O` [Compound I-14], the “Synergistic activity (FIC value) ATCC13883” value in [1] turned out to be 0.31. For the same molecule, the “Synergistic activity (FIC value) ATCC19606” value in [2] is on record as 0.13. In [3], the “Synergistic activity (FIC value) ATCC25922” value was 0.38. For the same molecule, the “Synergistic activity (FIC value) ATCC9027” value in [4] was determined as 0.53. Besides, the MIC in experiment [5], in experiment [6], in experiment [7] and in [8] was 256 µg/mL (≈ 739 µM) in each case. In addition, the survival rate in experiment [9] (intraperitoneal, Day 5) is recorded as 80%. Also, in experiment [9], the “synergistic effects with Polymyxin E in vivo” value was “synergistic effects”.
As to `CCc1sc(N=C(N)N)nc1-c1ccccc1Oc1ccc(N2CCOCC2)cc1` [Compound I-102], the “Synergistic activity (FIC value) ATCC13883” value in [1] came to 1.25. For the same molecule, the “Synergistic activity (FIC value) ATCC19606” value in [2] is 1.25. The “Synergistic activity (FIC value) ATCC25922” value in experiment [3] came to 1.25. Also, in experiment [4], the “Synergistic activity (FIC value) ATCC9027” value worked out at 0.51. For the same molecule, the “Antibacterial activity of the compound of Formula I, ATCC13883” value (“Antibacterial activity … ATCC13883” below) in experiment [5] stood at 256 µg/mL. In addition, the “Antibacterial activity of the compound of Formula I, ATCC19606” value (“Antibacterial activity … ATCC19606” for short) in [6] was 256 µg/mL. In experiment [7], the “Antibacterial activity of the compound of Formula I, ATCC25922” value (from here on “Antibacterial activity … ATCC25922”) came to 256 µg/mL. The “Antibacterial activity of the compound of Formula I, ATCC9027” value (from here on “Antibacterial activity … ATCC9027”) in experiment [8] was determined as 256 µg/mL.
Consider `CCc1sc(N=C(N)N)nc1-c1ccccc1-c1ccncn1` [Compound I-77], for which the “Synergistic activity (FIC value) ATCC13883” value in [1] stood at 0.52. Moreover, the “Synergistic activity (FIC value) ATCC19606” value in [2] is reported as 0.52. For the same molecule, the “Synergistic activity (FIC value) ATCC25922” value in [3] is 0.63. The “Synergistic activity (FIC value) ATCC9027” value in experiment [4] is reported as 1.25. Besides, the “Antibacterial activity … ATCC13883” value in experiment [5] amounted to 256 µg/mL. The “Antibacterial activity … ATCC19606” value in [6] stood at 256 µg/mL. Further, the “Antibacterial activity … ATCC25922” value in experiment [7] came to 256 µg/mL. The “Antibacterial activity … ATCC9027” value in experiment [8] turned out to be 256 µg/mL.
On to `O=C(Nc1ccccc1)Nc1cccc(-c2nc(N=C3NCCCN3)sc2Br)c1` [Compound I-198], for which the “Synergistic activity (FIC value) ATCC13883” value in experiment [1] was 1.25. Besides, in experiment [2], the “Synergistic activity (FIC value) ATCC19606” value is recorded as 0.75. In addition, in [3], the “Synergistic activity (FIC value) ATCC25922” value is recorded as 0.5. Also, the “Synergistic activity (FIC value) ATCC9027” value in experiment [4] is recorded as 1.25. The “Antibacterial activity … ATCC13883” value in experiment [5] stood at 128 µg/mL. The “Antibacterial activity … ATCC19606” value in experiment [6] was found to be 256 µg/mL. Further, in [7], the “Antibacterial activity … ATCC25922” value is 128 µg/mL. The “Antibacterial activity … ATCC9027” value in experiment [8] was 64 µg/mL.
For `NC(N)=Nc1nc(-c2c(I)cc(I)cc2I)cs1` [Compound I-54], the “Synergistic activity (FIC value) ATCC13883” value in [1] is reported as 0.33. Besides, the “Synergistic activity (FIC value) ATCC19606” value in experiment [2] was 0.15. For the same molecule, the “Synergistic activity (FIC value) ATCC25922” value in [3] amounted to 0.39. Besides, in [4], the “Synergistic activity (FIC value) ATCC9027” value is given as 0.62. The “Antibacterial activity … ATCC13883” value in experiment [5] is 256 µg/mL. Further, the “Antibacterial activity … ATCC19606” value in experiment [6] came to 256 µg/mL. In addition, in [7], the “Antibacterial activity … ATCC25922” value was determined as 256 µg/mL. Besides, in experiment [8], the “Antibacterial activity … ATCC9027” value came out at 256 µg/mL.
On to `NC(N)=Nc1nc(-c2ccc(OS(N)(=O)=O)cc2)co1` [Compound I-29], for which, in experiment [1], the “Synergistic activity (FIC value) ATCC13883” value came to 1.25. The “Synergistic activity (FIC value) ATCC19606” value in [2] is 0.26. For the same molecule, the “Synergistic activity (FIC value) ATCC25922” value in experiment [3] is 1.25. In experiment [4], the “Synergistic activity (FIC value) ATCC9027” value worked out at 1.25. In addition, the “Antibacterial activity … ATCC13883” value in experiment [5] was 256 µg/mL. Besides, the “Antibacterial activity … ATCC19606” value in experiment [6] is 256 µg/mL. For the same molecule, in experiment [7], the “Antibacterial activity … ATCC25922” value worked out at 256 µg/mL. Further, the “Antibacterial activity … ATCC9027” value in [8] worked out at 256 µg/mL.
In the case of `CN(C)c1ccc(-c2nc(N=C(N)N)[nH]c2Cl)c(-c2ccco2)c1` [Compound I-78], in experiment [1], the “Synergistic activity (FIC value) ATCC13883” value was determined as 0.38. Moreover, in experiment [2], the “Synergistic activity (FIC value) ATCC19606” value is 0.75. Moreover, the “Synergistic activity (FIC value) ATCC25922” value in experiment [3] worked out at 0.5. For the same molecule, the “Synergistic activity (FIC value) ATCC9027” value in experiment [4] is recorded as 0.63. For the same molecule, the “Antibacterial activity … ATCC13883” value in experiment [5] stood at 256 µg/mL. Moreover, the “Antibacterial activity … ATCC19606” value in experiment [6] was 256 µg/mL. Moreover, the “Antibacterial activity … ATCC25922” value in [7] is 256 µg/mL. Besides, in experiment [8], the “Antibacterial activity … ATCC9027” value is 128 µg/mL.
As to `NC(N)=Nc1nc(-c2ccccc2C(F)(F)F)c[se]1` [Compound I-41], in experiment [1], the “Synergistic activity (FIC value) ATCC13883” value is on record as 0.38. The “Synergistic activity (FIC value) ATCC19606” value in experiment [2] is on record as 0.5. Also, in experiment [3], the “Synergistic activity (FIC value) ATCC25922” value turned out to be 0.38. Further, the “Synergistic activity (FIC value) ATCC9027” value in [4] amounted to 0.63. Moreover, the “Antibacterial activity … ATCC13883” value in experiment [5] was 256 µg/mL. Also, the “Antibacterial activity … ATCC19606” value in experiment [6] came out at 256 µg/mL. In experiment [7], the “Antibacterial activity … ATCC25922” value is 256 µg/mL. Also, in experiment [8], the “Antibacterial activity … ATCC9027” value was 256 µg/mL.
As to `NC(N)=Nc1nc(-c2ccc3ccccc3c2)cs1` [Compound I-56], the “Synergistic activity (FIC value) ATCC13883” value in experiment [1] is listed as 1.25. In experiment [2], the “Synergistic activity (FIC value) ATCC19606” value stood at 1.25. Moreover, the “Synergistic activity (FIC value) ATCC25922” value in experiment [3] is on record as 0.5. For the same molecule, in experiment [4], the “Synergistic activity (FIC value) ATCC9027” value came to 1.25. Also, the MIC in [5], in experiment [6], in [7] and in experiment [8] was 256 µg/mL (≈ 954 µM) in each case.
On to `Oc1ccc(-c2ccccn2)c(-c2c[se]c(N=C3NCCCN3)n2)c1` [Compound I-137], for which the “Synergistic activity (FIC value) ATCC13883” value in experiment [1] worked out at 1.25. Also, in experiment [2], the “Synergistic activity (FIC value) ATCC19606” value was determined as 1.25. For the same molecule, the “Synergistic activity (FIC value) ATCC25922” value in experiment [3] is 0.5. Besides, the “Synergistic activity (FIC value) ATCC9027” value in [4] is reported as 1.25. Moreover, the “Antibacterial activity … ATCC13883” value in experiment [5] was 128 µg/mL. Further, the “Antibacterial activity … ATCC19606” value in experiment [6] turned out to be 256 µg/mL. In addition, in experiment [7], the “Antibacterial activity … ATCC25922” value was determined as 128 µg/mL. In addition, the “Antibacterial activity … ATCC9027” value in [8] is 128 µg/mL.
